# Laboratory results published in US20130344501A1, “METHODS FOR PRODUCING THREE-DIMENSIONAL PHYSIOLOGICALLY RELEVANT IMMUNE TISSUE SYSTEMS UNDER LOW FLUID SHEAR CONDITIONS” (priority 2010, published 2013).
# Legend:
# [1] = test system: three-dimensional A549 and three-dimensional A549-U937 cultures; format: in vitro ADME, human; conditions: original concentration 100 μM
# Procedure: (§1) Following exposure of three-dimensional cultures and monocytes to 3-oxo-C12 HSL, cell-free samples were taken and stored at −20° C. at indicated time points. The remaining 3-oxo-C12 HSL concentration was assessed as previously described (Crabbé et al., 2008) using the indicator strain E. coli harboring the reporter plasmid pUCP22NotI-PlasB::gfp(ASV)Plac::lasR (Hentzer et al., 2002). A 3-oxo-C12 HSL standard series was included ranging from 1.63 to 100 μM. Culture medium containing microcarrier beads was used as a control to normalize for bioadsorption.
# [2] = test system: U937 cultures; format: in vitro ADME, human; conditions: compared to three-dimensional A549 and A549-U937 cultures
# Procedure: as §1
# [3] = test system: U937 cells; test: Cell viability of U937 monocytes cultured alone (with or without microcarrier beads) after exposure to 3-oxo-C12 HSL, flow cytometry; format: cell-based, human; conditions: for Percentage viability, U937: U937 cells exposed alone, mean ± SD, N=3; for Percentage viability, U937 / Percentage viability, U937 + beads: 20 hour exposure; for Percentage viability, U937 + beads: U937 in the presence of microcarrier beads
# Procedure: (§2) Assessment of live-, apoptotic-, and necrotic cell populations was performed with the annexin V-propidium iodide (PI) kit for flow cytometry analysis (ImmunoSource) according to the manufacturer's instructions.
# (§3) Stained cell suspensions were analyzed with an EPICS XL flow cytometer (Beckman-Coulter) or a Cytomics FC 500 system (Beckman-Coulter), equipped with an argon laser and filters for adequate excitation of the chosen fluorophores. Forward scatter, side scatter, FITC-, PI and PE-Cy5 emissions were measured and a total of 10,000 cells were recorded for each sample. The respective cell populations were delimited to eliminate background signals originating from cell debris. To assess background fluorescent signals from the tested cell populations, non-stained samples were included.
# After 72 hours of co-cultivation, aggregates containing 2×10^6 cells were seeded into 6-well plates containing fresh medium (5 ml total volume). Subsequently, aggregates were spiked with 5, 10 or 100 μM 3-oxo-C12 HSL (Sigma-Aldrich) (starting from a 20 mM stock solution in DMSO, stored at −20° C.). Equal volumes of DMSO, containing the respective amounts of 3-oxo-C12 HSL, were added to each well (25 μl) and a solvent control (25 μl DMSO) was included in each experiment. Six-well plates were placed at 37° C. in a 5% CO2 environment and incubated for 20 hours. For exposure assays of monocytes to 3-oxo-C12 HSL, 2×10^6 U937 cells/well were transferred in 6-well plates. To assess the influence of 3-oxo-C12 HSL on monocytes cultured on microcarrier beads, collagen I-coated beads were added to the cells at the same concentration as for seeding three-dimensional cultures (1 bead per 2500 cells). Subsequently, monocyte cultures (with or without microcarrier beads) were spiked with 3-oxo-C12 HSL (see above). A solvent control was included. […] Cell viability was assayed with trypan blue (0.4%) (Sigma) and/or with the annexin V-PI kit (ImmunoSource) (see above). […] FIG. 9B are examples of the three-dimensional A549-U937 co-culture model exposed to 100 μM 3-oxo-C12 HSL and to the solvent control DMSO. The presented cell population is gated for CD45 positive cells and thus only includes monocytes/macrophages. For FIGS. 9A-B, “I” represents the percentage of dead cells, while “H” is the viable cell population. Consequently, cell viability was further assessed based on the shift in forward scatter signal (see Table 1).
# [4] = test system: A549 cells in A549-U937 3-D co-culture; test: Viability of A549 epithelial cells in the three-dimensional A549-U937 co-culture after exposure to 3-oxo-C12 HSL; format: cell-based, human; conditions: A549 co-cultured three-dimensionally with U937, 20 hour exposure
# Procedure: A549 three-dimensional aggregates were grown as described above and after 9 days of three-dimensional A549 cultivation, undifferentiated U937 monocytes were added to the HARV as follows. three-dimensional A549 cells were counted by trypsinization of an aggregate sample and U937 cells (grown in T75 flasks) were added in a 1:1 ratio to the three-dimensional A549 culture. A549 and U937 cells were co-cultured in the HARV at 20 rpm for 72 h. After addition of the monocytes, culture medium was changed after 48 hours of co-cultivation where after medium was replenished every 24 hours.
# as §2, §3
# After 72 hours of co-cultivation, aggregates containing 2×10^6 cells were seeded into 6-well plates containing fresh medium (5 ml total volume). Subsequently, aggregates were spiked with 5, 10 or 100 μM 3-oxo-C12 HSL (Sigma-Aldrich) (starting from a 20 mM stock solution in DMSO, stored at −20° C.). Equal volumes of DMSO, containing the respective amounts of 3-oxo-C12 HSL, were added to each well (25 μl) and a solvent control (25 μl DMSO) was included in each experiment. Six-well plates were placed at 37° C. in a 5% CO2 environment and incubated for 20 hours. […] Consequently, cell viability was further assessed based on the shift in forward scatter signal (see Table 1).
compound,measurement,setting,value
"CCCCCCCCCC(=O)CC(=O)N[C@H]1CCOC1=O [3-oxo-C12 HSL, N-(3-oxododecanoyl)-Lhomoserine lactone]",remaining fraction of the original 3-oxo-C12 HSL concentration,[1]; after 2 hours of exposure,30%
same,residual 3-oxo-C12 HSL,[1]; after 20 hours of exposure,no residual 3-oxo-C12 HSL could be detected
same,change of 3-oxo-C12 HSL concentration over time,[2],minimal differences in 3-oxo-C12 HSL concentration over time
same,loss of viability of pure cultures of U937 cells,"[3]; 100 μM, after 2 hours of exposure",started to show significant loss of viability
same,viability of pure cultures of U937 cells,"[3]; 100 μM, after 5 hours of exposure",50%
same,"Percentage viability, U937",[3]; 5 μM,82.8 ± 0.2%
same,"Percentage viability, U937",[3]; 10 μM,75.6 ± 0.6%
same,"Percentage viability, U937 + beads",[3]; 5 μM,89.1 ± 1.4%
same,"Percentage viability, U937 + beads",[3]; 10 μM,90.9 ± 0.4%
same,"Percentage viability, U937 + beads",[3]; 100 μM,5.3 ± 0.4%
same,monocyte cell viability,"[3]; lower concentrations, 5 μM and 10 μM",did not induce significant differences
same,"Percentage viability, A549-U937 3-D, A549",[4]; 5 μM,90.3 ± 0.01%
same,"Percentage viability, A549-U937 3-D, A549",[4]; 10 μM,92.6 ± 0.00%
same,"Percentage viability, A549-U937 3-D, A549",[4]; 100 μM,84.3 ± 0.00%
